Like-named read-outs stand apart in the source and are kept apart here.
Columns and labels:
Type in all cases: cell-based, Hepatitis C virus
[1] = test system: HCV genotype 1a H77 strain subgenomic luciferase replicon; experiment: HCV replicon assay, genotype 1a
Description: (§1) The HCV luciferase replicon assay measures the ability of a test compound to inhibit HCV replication in cell culture after 3 days of treatment in a human hepatoma cell line (Huh-7) bearing an HCV replicon containing a luciferase-neomycin phosphotransferase fusion gene. The inhibition of HCV replication was measured by quantification of luciferase protein expression. Briefly, Huh-7 cells containing either the HCV genotype 1a H77 strain or genotype 1b Con1 strain subgenomic luciferase replicon (H1a-luc or Zluc, respectively) were grown in DMEM containing glucose, L-glutamine and sodium pyruvate, 10% fetal bovine serum (FBS), 100 IU/mL penicillin, 100 μg/mL streptomycin, 2 mM GlutaMAX, non-essential amino acids and 0.25 (H1a-luc) or 0.5 (Zluc) mg/mL G418. GlutaMAX was obtained from Invitrogen, Corp.; all other media reagents were obtained from Mediatech, Inc. For dose-response testing, the cells were seeded in 96-well plates at 1×10^4 (H1a-luc) or 7.5×10^3 (Zluc) cells/well in a volume of 50 μL, and incubated at 37° C./5% CO2. Three hours after plating, 50 μL of ten 5-fold serial dilutions of compound were added, and cell cultures were incubated at 37° C./5% CO2 for 72 hours. In all cases, Huh-7 cells lacking the HCV replicon served as negative control. To assess luciferase expression, the media/compound was removed from the plates and ONE-glo Luciferase assay reagent (Promega) was added to each well. The assay plates were shaken for 3 minutes at room temperature and luciferase activity for each well was measured with a 1 sec read time on the Victor^3V multilabel counter using a 700 nm cut-off filter (Perkin Elmer). EC50 values were calculated from dose response curves from the resulting best-fit equations determined by Microsoft Excel and XLfit 4.1 software.

HCV 2b = experiment: HCV replicon assay, genotype 2b
[2] = test system: HCV genotype 3a NS5A within the 1b-replicon; experiment: HCV replicon assay, genotype 3a (NS5A intergenotypic stable cell line)
From the text: The nucleotide sequences of the NS5A region of genotype 2a (GenBank Accession # AB047639), genotype 3a (GenBank Accession # D17763), and genotype 4a (GenBank Accession # DQ418788) were synthesized by an outside vendor. The NS5A region of each of these genotypes included the first 11 amino acids of the protease recognition sequence of genotype 1b, as well as the last 10 amino acids of genotype 1b. The NS5A gene cassettes were excised with site specific restriction endonucleases and ligated into a ZS11-luciferase genotype 1b backbone (backbone contains the genotype 1b NS3 protease, NS4a, NS4b, and NS5b coding regions) with similarly cut restriction enzyme sites. Thus, the newly constructed plasmid contains a genotype 2a-, 3a- or 4a-specific NS5A gene within the 1b-replicon.
These new intergenotypic plasmids were used to establish stable cell lines. RNA was generated from the NS5A intergenotypic plasmids and used in conjunction with a lipofectin reagent to transfect a cured Huh7 cell line. Transfected cells were selected for with G418. After selection has occurred the stable cell lines were propagated, tested for luciferase activity, and RT-PCR with genotype specific primers (either 1a, 2a, 3a, or 4a). Stable cell lines containing the intergenotypic replicon were then fully sequenced and analyzed for proper expression of NS3, NS5A and NS5B proteins.
Drug titration analysis was performed using the luciferase replicon assay described herein.
as §1

[3] = test system: HCV genotype 1b Con1 strain subgenomic luciferase replicon; experiment: HCV replicon assay, genotype 1b
Description: as §1

[4] = test system: HCV 1aY93H mutant replicon; experiment: HCV replicon assay, genotype 1a Y93H mutant
Description: General procedure: The luciferase replicon transient transfection assay measures the ability of a test compound to inhibit the replication of a transiently-transfected HCV luciferase-bearing wild-type or mutant replicon in cured human hepatoma cells (Huh7.5). The inhibition of HCV replication was measured by quantification of luciferase protein expression. This assay has been validated using a panel of genotype 1a and 1b replicons bearing mutations known to be associated with resistance to BMS-790052. Briefly, subconfluent Huh7.5 cells were electroporated with 10 μg of wild-type or mutant luciferase-bearing HCV replicon RNA. The cells were then seeded in 96-well opaque white plates at 3×10^4 cells/well in 150 μL/well and incubated for 4 hrs at 37° C./5% CO2. Ten 1:5 serial dilutions of each test compound were made in media (DMEM containing glucose, L-glutamine and sodium pyruvate, 10% fetal bovine serum, 100 IU/mL penicillin, 100 μg/mL streptomycin, 2 mM GlutaMAX, and 1×MEM non-essential amino acids (Mediatech, Inc. and Invitrogen Corp.)) at concentrations that were 4× higher than the final concentrations to be tested and 50 μL/well was added to the transfected cells. Untreated, mock-transfected cells served as a negative control of luciferase expression. The plates were incubated at 37° C./5% CO2 for 4 days whereupon the media was removed and 50 μL of ONE-glo luciferase substrate (Promega) was added to each well. The plates were agitated on a rotating platform at room temperature for 3 min and read in a Victor^3V microplate reader (Perkin-Elmer) using a 700 nm cut-off filter with a 1 sec read time. EC50 values were calculated from dose response curves from the resulting best-fit equations determined by Microsoft Excel and XLfit 4.1 software.

[5] = read-out: 1a IC50, HCV genotype 1a
[6] = read-out: 2b IC50, HCV genotype 2b
[7] = Hepatitis C virus, read-out: 3a IC50 (nM), HCV genotype 3a
[8] = Hepatitis C virus, read-out: 1aY93H IC50 (nM), HCV genotype 1a, Y93H mutant
[9] = Hepatitis C virus, read-out: 2b IC50 (nM), HCV genotype 2b
[10] = Hepatitis C virus, read-out: 1a IC50 (nM), HCV genotype 1a

| Structure (SMILES) | IC50 [1, 5] | IC50 (HCV 2b; [6]) | IC50 [2, 7] | IC50 [3] | IC50 [4, 8] | IC50 (HCV 2b; [9]) | IC50 ([2]; read-out: 3a IC50, HCV genotype 3a) | IC50 ([3]; Hepatitis C virus) | IC50 ([4]; read-out: 1aY93H IC50, HCV genotype 1a, Y93H mutant) | IC50 [1, 10] |
| --- | --- | --- | --- | --- | --- | --- | --- | --- | --- | --- |
| COC(=O)N[C@H](C(=O)N1CCC[C@H]1c1ncc(-c2ccc3c(c2)Oc2ccc4cc(-c5cnc([C@@H]6CCCN6C(=O)[C@@H](NC(=O)OC)C(C)C)[nH]5)ccc4c2C3C)[nH]1)C(C)C (single isomer, unassigned) [Compound 2] | 0.0046 nM | 37.1 nM | 1.38 nM | 0.0036 nM | 10.6 nM | – | – | – | – | – |
| CCC1c2ccc(-c3cnc([C@@H]4CCCN4C(=O)[C@@H](NC(=O)OC)C4CCOCC4)[nH]3)cc2Oc2ccc3cc(-c4cnc([C@@H]5CCCN5C(=O)[C@@H](NC(=O)OC)C5CCOCC5)[nH]4)ccc3c21 (single isomer, unassigned) [Compound 15] | 0.0098 nM | – | – | – | – | 0.292 nM | 0.218 nM | 0.0036 nM | 0.826 nM | – |
| COC(=O)N[C@H](C(=O)N1CCC[C@H]1c1ncc(-c2ccc3c(F)c4oc5ccc(-c6cnc([C@@H]7CCCN7C(=O)[C@@H](NC(=O)OC)C(C)C)[nH]6)cc5c(=O)c4cc3c2)[nH]1)C(C)C [Compound 26, methyl [(1S)-1-({(2S)-2-[5-(6-fluoro-9-{2-[(2S)-1-{(2S)-2-[(methoxycarbonyl)amino]-3-methylbutanoyl}pyrrolidin-2-yl]-1H-imidazol-5-yl}-12-oxo-12H-benzo[b]xanthen-2-yl)-1H-imidazol-2-yl]pyrrolidin-1-yl}carbonyl)-2-methylpropyl]carbamate] | – | – | ≥ 1 nM | – | ≥ 100 nM | ≥ 100 nM | – | 1 nM | – | ≥ 1 nM |
| CCC1(CC)c2ccc(-c3cnc([C@@H]4CCCN4C(=O)[C@H](NC(=O)OC)C4CCOCC4)[nH]3)cc2Oc2cc3ccc(-c4cnc([C@@H]5CCCN5C(=O)[C@@H](NC(=O)OC)C5CCOCC5)[nH]4)cc3cc21 [Compound 17, methyl [(1R)-2-[(2S)-2-{5-[12,12-diethyl-9-(2-{(2S)-1-[(2S)-2-[(methoxycarbonyl)amino]-2-(tetrahydro-2H-pyran-4-yl)acetyl]pyrrolidin-2-yl}-1H-imidazol-5-yl)-12H-benzo[b]xanthen-3-yl]-1H-imidazol-2-yl}pyrrolidin-1-yl]-2-oxo-1-(tetrahydro-2H-pyran-4-yl)ethyl]carbamate] | – | – | 0.055 nM | – | 0.046 nM | 0.028 nM | – | 0.0305 nM | – | 0.0034 nM |
| COC(=O)N[C@H](C(=O)N1C[C@H](F)C[C@H]1c1ncc(-c2ccc3c(F)c4oc5ccc(-c6cnc([C@@H]7C[C@@H](F)CN7C(=O)[C@@H](NC(=O)OC)C(C)C)[nH]6)cc5c(=O)c4cc3c2)[nH]1)C(C)C [Compound 29, methyl [(1S)-1-({(2S,4R)-4-fluoro-2-[5-(6-fluoro-9-{2-[(2S,4R)-4-fluoro-1-{(2S)-2-[(methoxycarbonyl)amino]-3-methylbutanoyl}pyrrolidin-2-yl]-1H-imidazol-5-yl}-12-oxo-12H-benzo[b]xanthen-2-yl)-1H-imidazol-2-yl]pyrrolidin-1-yl}carbonyl)-2-methylpropyl]carbamate] | – | – | ≥ 1 nM | – | ≥ 100 nM | ≥ 100 nM | – | 1 nM | – | ≥ 1 nM |
| COC(=O)N[C@H](C(=O)N1C[C@H](F)C[C@H]1c1ncc(-c2ccc3c(ccc4oc5cc(-c6cnc([C@@H]7C[C@@H](F)CN7C(=O)[C@@H](NC(=O)OC)C7CCOCC7)[nH]6)ccc5c(=O)c43)c2)[nH]1)C1CCOCC1 [Compound 32, dimethyl [(12-oxo-12H-benzo[a]xanthene-3,9-diyl)bis{1H-imidazole-5,2-diyl[(2S,4R)-4-fluoropyrrolidine-2,1-diyl][(1S)-2-oxo-1-(tetrahydro-2H-pyran-4-yl)ethane-2,1-diyl]}]biscarbamate] | – | – | 5.84 nM | – | 0.18 nM | 3.47 nM | – | – | – | 0.0841 nM |
| CCC1(CC)c2ccc(-c3cnc([C@@H]4CCCN4C(=O)[C@H](NC(=O)OC)C(C)C)[nH]3)cc2Oc2cc3ccc(-c4cnc([C@@H]5CCCN5C(=O)[C@@H](NC(=O)OC)C(C)C)[nH]4)cc3cc21 [Compound 9, methyl [(1R)-1-({(2S)-2-[5-(12,12-diethyl-9-{2-[(2S)-1-{(2S)-2-[(methoxycarbonyl)amino]-3-methylbutanoyl}pyrrolidin-2-yl]-1H-imidazol-5-yl}-12H-benzo[b]xanthen-3-yl)-1H-imidazol-2-yl]pyrrolidin-1-yl}carbonyl)-2-methylpropyl]carbamate] | – | – | 1.11 nM | – | 3.28 nM | 4.53 nM | – | – | – | 0.002 nM |
| CCC1c2ccc(-c3cnc([C@@H]4CCCN4C(=O)[C@@H](NC(=O)OC)C(C)C)[nH]3)cc2Oc2ccc3cc(-c4cnc([C@@H]5CCCN5C(=O)[C@@H](NC(=O)OC)C(C)C)[nH]4)ccc3c21 (single isomer, unassigned) [Compound 5] | – | 0.784 nM | 1.08 nM | – | 11.7 nM | – | – | – | – | 0.005 nM |
| COC(=O)N[C@H](C(=O)N1CCC[C@H]1c1ncc(-c2ccc3c(ccc4oc5cc(-c6cnc([C@@H]7CCCN7C(=O)[C@@H](NC(=O)OC)C7CCOCC7)[nH]6)ccc5c(=O)c43)c2)[nH]1)C1CCOCC1 [Compound 30, dimethyl [(12-oxo-12H-benzo[a]xanthene-3,9-diyl)bis{1H-imidazole-5,2-diyl(2S)pyrrolidine-2,1-diyl[(1S)-2-oxo-1-(tetrahydro-2H-pyran-4-yl)ethane-2,1-diyl]}]biscarbamate] | – | – | 0.722 nM | – | 2.03 nM | 0.481 nM | – | – | – | 0.0416 nM |
| CCC1(CC)c2ccc(-c3cnc([C@@H]4CCCN4C(=O)[C@H](NC(=O)OC)C(C)C)[nH]3)cc2Oc2ccc3cc(-c4cnc([C@@H]5CCCN5C(=O)[C@@H](NC(=O)OC)C(C)C)[nH]4)ccc3c21 [Compound 8, methyl [(1R)-1-({(2S)-2-[5-(12,12-diethyl-3-{2-[(2S)-1-{(2S)-2-[(methoxycarbonyl)amino]-3-methylbutanoyl}pyrrolidin-2-yl]-1H-imidazol-5-yl}-12H-benzo[a]xanthen-9-yl)-1H-imidazol-2-yl]pyrrolidin-1-yl}carbonyl)-2-methylpropyl]carbamate] | – | – | 0.581 nM | – | 4.1 nM | 3.33 nM | – | – | – | 0.002 nM |

Source: patent US10787441B2, “Hepatitis C virus inhibitors” (priority 2016, dated 2020)
